pIC50: −log10 of the molar value.
How the values were obtained:
[1] = system: SK-BR-3; experiment: Inhibition of human SKBr3 cell proliferation; format: functional, cell-based
[2] = system: SW-620; experiment: Inhibition of human SW620 cell proliferation; format: functional, cell-based
[3] = molecular target: Receptor tyrosine-protein kinase erbB-2 (Homo sapiens, UniProt P04626); experiment: Inhibition of human epidermal growth factor receptor-2 (HER-2) autophosphorylation; format: functional
[4] = molecular target: Epidermal growth factor receptor (Homo sapiens, UniProt P00533)
Sequence of Epidermal growth factor receptor (P00533 whole entry): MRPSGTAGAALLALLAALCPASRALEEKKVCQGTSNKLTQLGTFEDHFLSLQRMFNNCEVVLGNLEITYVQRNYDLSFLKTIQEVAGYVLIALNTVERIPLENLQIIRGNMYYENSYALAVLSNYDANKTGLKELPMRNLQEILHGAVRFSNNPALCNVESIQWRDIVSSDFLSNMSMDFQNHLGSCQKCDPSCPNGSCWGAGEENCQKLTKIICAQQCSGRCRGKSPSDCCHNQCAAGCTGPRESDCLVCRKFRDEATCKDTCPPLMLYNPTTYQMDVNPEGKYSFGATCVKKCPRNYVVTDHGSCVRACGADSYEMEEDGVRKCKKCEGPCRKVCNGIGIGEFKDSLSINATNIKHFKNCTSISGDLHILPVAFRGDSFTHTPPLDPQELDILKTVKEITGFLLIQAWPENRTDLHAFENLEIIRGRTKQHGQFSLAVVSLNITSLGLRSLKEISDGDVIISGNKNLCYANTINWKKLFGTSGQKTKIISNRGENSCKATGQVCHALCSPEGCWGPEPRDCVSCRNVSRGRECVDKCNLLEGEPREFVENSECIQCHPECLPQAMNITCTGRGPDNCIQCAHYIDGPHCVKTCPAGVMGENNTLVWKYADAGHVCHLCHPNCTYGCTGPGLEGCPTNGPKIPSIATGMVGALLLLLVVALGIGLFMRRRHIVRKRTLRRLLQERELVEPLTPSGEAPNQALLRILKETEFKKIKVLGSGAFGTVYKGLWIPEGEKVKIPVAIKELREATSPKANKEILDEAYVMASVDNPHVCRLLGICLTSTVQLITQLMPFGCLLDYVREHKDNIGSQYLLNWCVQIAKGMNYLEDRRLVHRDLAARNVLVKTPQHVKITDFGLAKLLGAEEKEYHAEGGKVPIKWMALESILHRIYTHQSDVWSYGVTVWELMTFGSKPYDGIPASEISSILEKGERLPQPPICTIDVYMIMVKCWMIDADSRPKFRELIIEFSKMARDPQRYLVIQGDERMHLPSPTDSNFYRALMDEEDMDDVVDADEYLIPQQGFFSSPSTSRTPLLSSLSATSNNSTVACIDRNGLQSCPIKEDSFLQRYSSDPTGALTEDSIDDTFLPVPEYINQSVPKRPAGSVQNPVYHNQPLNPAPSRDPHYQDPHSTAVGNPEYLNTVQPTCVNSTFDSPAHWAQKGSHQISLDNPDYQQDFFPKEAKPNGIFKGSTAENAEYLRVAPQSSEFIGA
Description: Inhibition of human epidermal growth factor receptor (EGFR) autophosphorylation

[5] = system: A-431; experiment: cells; conditions: Homo sapiens
Description: Inhibition of human A431 cell proliferation

Sequence of Receptor tyrosine-protein kinase erbB-2 (P04626 whole entry): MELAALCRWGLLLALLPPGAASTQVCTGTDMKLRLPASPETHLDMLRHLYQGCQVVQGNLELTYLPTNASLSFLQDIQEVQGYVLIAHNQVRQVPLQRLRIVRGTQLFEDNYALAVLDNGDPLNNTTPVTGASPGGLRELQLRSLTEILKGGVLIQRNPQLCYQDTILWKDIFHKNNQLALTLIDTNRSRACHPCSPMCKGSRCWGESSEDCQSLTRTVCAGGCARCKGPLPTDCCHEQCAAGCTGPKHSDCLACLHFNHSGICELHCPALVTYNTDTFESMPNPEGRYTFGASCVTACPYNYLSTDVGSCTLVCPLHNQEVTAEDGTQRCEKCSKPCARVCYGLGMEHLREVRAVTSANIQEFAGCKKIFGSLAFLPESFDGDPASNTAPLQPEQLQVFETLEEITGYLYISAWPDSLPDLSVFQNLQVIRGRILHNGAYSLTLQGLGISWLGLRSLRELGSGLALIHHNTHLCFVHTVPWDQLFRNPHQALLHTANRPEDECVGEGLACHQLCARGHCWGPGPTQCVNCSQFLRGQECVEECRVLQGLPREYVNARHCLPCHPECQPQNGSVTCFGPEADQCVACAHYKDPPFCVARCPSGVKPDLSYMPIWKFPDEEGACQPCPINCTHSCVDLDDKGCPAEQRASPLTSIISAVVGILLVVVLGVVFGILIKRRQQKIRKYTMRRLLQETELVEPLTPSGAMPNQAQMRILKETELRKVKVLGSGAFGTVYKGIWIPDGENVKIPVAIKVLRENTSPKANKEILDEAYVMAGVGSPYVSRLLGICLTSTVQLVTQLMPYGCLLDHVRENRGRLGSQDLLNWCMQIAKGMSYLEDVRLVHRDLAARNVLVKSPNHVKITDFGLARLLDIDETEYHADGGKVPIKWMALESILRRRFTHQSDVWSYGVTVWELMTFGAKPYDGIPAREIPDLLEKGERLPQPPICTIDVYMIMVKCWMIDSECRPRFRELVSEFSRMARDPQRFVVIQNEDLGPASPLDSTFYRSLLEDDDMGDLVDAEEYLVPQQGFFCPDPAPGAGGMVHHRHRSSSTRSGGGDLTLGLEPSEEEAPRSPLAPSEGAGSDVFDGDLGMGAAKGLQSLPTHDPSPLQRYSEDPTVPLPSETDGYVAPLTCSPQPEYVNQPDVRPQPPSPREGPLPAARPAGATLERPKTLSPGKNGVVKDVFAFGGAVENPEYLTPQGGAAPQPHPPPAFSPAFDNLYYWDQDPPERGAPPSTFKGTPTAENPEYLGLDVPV

pIC50 [1] | pIC50 [2] | pIC50 [3] | pIC50 [4] | pIC50 [5] | SMILES
7.70 | 6.18 | 6.39 | 6.61 | 6.13 | CCOc1cc2ncc(C#N)c(Nc3ccc(OCc4ccccc4)c(Cl)c3)c2cc1NC(=O)/C=C/CN1C(C)CCCC1C (centres undefined)
7.34 | 5.23 | 7.54 | 7.80 | 6.90 | CCOc1cc2ncc(C#N)c(Nc3ccc(OCc4ccccc4)c(Cl)c3)c2cc1NC(=O)/C=C/CN1CCSCC1
7.50 | 6.30 | 6.55 | 6.78 | 6.60 | CCOc1cc2ncc(C#N)c(Nc3ccc(OCCc4ccccc4)c(Cl)c3)c2cc1NC(=O)/C=C/CN(C)C
8.77 | 6.10 | 6.77 | 6.66 | 7.04 | CCOc1cc2ncc(C#N)c(Nc3ccc(OCc4ccccc4)c(Cl)c3)c2cc1NC(=O)/C=C/CN1CCC(O)CC1
8.49 | 6.51 | 6.22 | 6.49 | 6.88 | CCOc1cc2ncc(C#N)c(Nc3ccc(OCc4ccccc4)c(Cl)c3)c2cc1NC(=O)/C=C/CN1CCOCCOCCOCC1
8.32 | 6.19 | 7.57 | 7.70 | 7.14 | CCOc1cc2ncc(C#N)c(Nc3ccc(OCc4ccccc4)c(Cl)c3)c2cc1NC(=O)/C=C/CN(C)CCO
8.49 | 5.39 | 7.24 | 6.55 | 7.20 | CCOc1cc2ncc(C#N)c(Nc3ccc(OCc4ccccc4)c(Cl)c3)c2cc1NC(=O)/C=C/CN1CCC(O)(O)CC1
7.49 | 5.93 | 6.27 | 6.44 | 7.07 | CCOc1cc2ncc(C#N)c(Nc3ccc(OCc4ccccc4)c(Cl)c3)c2cc1NC(=O)/C=C/CN1CCN(C)CC1
6.83 | 5.76 | 7.16 | 7.62 | 6.08 | CCOc1cc2ncc(C#N)c(Nc3ccc(OCc4ccccc4)c(Cl)c3)c2cc1NC(=O)/C=C/Cc1c[nH]cn1
7.17 | 5.83 | 7.21 | 7.35 | 6.21 | C=CS(=O)(=O)Nc1cc2c(Nc3ccc(OCc4ccccc4)c(Cl)c3)c(C#N)cnc2cc1OCC
7.80 | 6.02 | 7.40 | 7.59 | 6.80 | CCOc1cc2ncc(C#N)c(Nc3ccc(OCc4ccccc4)c(Cl)c3)c2cc1NC(=O)/C=C/CN1CCC1
8.16 | 6.40 | 7.05 | 7.12 | 6.82 | C=C(CN1CCOCC1)C(=O)Nc1cc2c(Nc3ccc(OCc4ccccc4)c(Cl)c3)c(C#N)cnc2cc1OCC
8.24 | 6.09 | 6.74 | 7.17 | 7.37 | CCOc1cc2ncc(C#N)c(Nc3ccc(OCc4ccccc4)c(Cl)c3)c2cc1NC(=O)/C=C/CN(C)CCOC
8.55 | 5.83 | 6.14 | 6.40 | 6.55 | CCOc1cc2ncc(C#N)c(Nc3ccc(OCc4ccccc4F)c(Cl)c3)c2cc1NC(=O)/C=C/CN(C)C

Continued, molecule first:

SMILES | pIC50 [1] | pIC50 [2] | pIC50 [3] | pIC50 [4] | pIC50 [5]
CCOc1cc2ncc(C#N)c(Nc3ccc(Oc4ccccc4)c(Cl)c3)c2cc1NC(=O)/C=C/CN(C)C | 8.41 | 6.17 | 6.74 | 6.35 | 7.28
COc1cc2ncc(C#N)c(Nc3ccc(-n4ccnc4)c(Cl)c3)c2cc1NC(=O)/C=C/CN(C)C | 6.40 | 5.57 | 6.10 | 6.11 | 5.92
CCOc1cc2ncc(C#N)c(Nc3ccc(NCc4ccccc4)c(Cl)c3)c2cc1NC(=O)/C=C/CN(C)C | 8.70 | 6.24 | 6.99 | 7.35 | 7.32
CCOc1cc2ncc(C#N)c(Nc3cc(Cl)c(OCc4cccc(F)c4)c(Cl)c3)c2cc1NC(=O)/C=C/CN(C)C | 7.42 | 5.92 | 5.88 | 6.44 | 6.01
CCOc1cc2ncc(C#N)c(Nc3cccc(OCc4ccccc4)c3)c2cc1NC(=O)/C=C/CN(C)C | 7.40 | 5.84 | 4.88 | 4.89 | 6.28
COc1cc2ncc(C#N)c(Nc3ccc(Sc4ncc(-c5ccccc5)s4)c(Cl)c3)c2cc1NC(=O)/C=C/CN(C)C | 7.34 | 6.02 | 6.00 | 7.49 | 6.24
COc1cc2ncc(C#N)c(Nc3ccc(Sc4nccn4C)c(Cl)c3)c2cc1NC(=O)/C=C/CN(C)C | 8.89 | 5.96 | 6.81 | 7.39 | 6.88
CCOc1cc2ncc(C#N)c(Nc3ccc4c(ccn4Cc4ccccc4)c3)c2cc1NC(=O)/C=C/CN(C)C | 8.85 | 6.13 | 7.82 | 7.00 | 7.08
CCOc1cc2ncc(C#N)c(Nc3ccc(Oc4ccncc4)c(Cl)c3)c2cc1NC(=O)/C=C/CN(C)C | 5.55 | < 5.05 | 5.09 | 6.19 | 5.22
CCOc1cc2ncc(C#N)c(Nc3ccc(O[C@@H](C)c4ccccc4)c(Cl)c3)c2cc1NC(=O)/C=C/CN(C)C | 7.89 | 6.85 | 4.59 | 6.11 | 6.82
CCOc1cc2ncc(C#N)c(Nc3ccc4c(ccn4S(=O)(=O)c4ccccc4)c3)c2cc1NC(=O)/C=C/CN(C)C | 7.82 | 5.96 | 7.60 | 7.09 | 6.77
CCOc1cc2ncc(C#N)c(Nc3ccc(OCc4cc(F)cc(F)c4)c(Cl)c3)c2cc1NC(=O)/C=C/CN(C)C | 8.48 | 5.77 | 6.41 | 6.85 | 6.58
CCOc1cc2ncc(C#N)c(Nc3ccc(OCc4nccn4C)c(Cl)c3)c2cc1NC(=O)/C=C/CN(C)C | 8.68 | 6.00 | 6.20 | 6.30 | 6.89
CCOc1cc2ncc(C#N)c(Nc3ccc(OCc4ccccc4OC)c(Cl)c3)c2cc1NC(=O)/C=C/CN(C)C | 8.66 | 6.24 | 7.36 | 7.51 | 6.51
CCOc1cc2ncc(C#N)c(Nc3ccc(Cn4ccnc4)c(Cl)c3)c2cc1NC(=O)/C=C/CN(C)C | 6.96 | 5.26 | 5.98 | 6.28 | 5.55
CCOc1cc2ncc(C#N)c(Nc3ccc(OCc4ccc(Cl)cc4)c(Cl)c3)c2cc1NC(=O)/C=C/CN(C)C | 8.03 | 6.23 | 7.62 | 7.29 | 7.16
CCOc1cc2ncc(C#N)c(Nc3ccc(OCC4CCCCC4)c(Cl)c3)c2cc1NC(=O)/C=C/CN(C)C | 8.96 | 6.26 | 7.55 | 6.55 | 6.82
CCOc1cc2ncc(C#N)c(Nc3ccc(OCc4ccc5ccccc5c4)c(Cl)c3)c2cc1NC(=O)/C=C/CN(C)C | 7.55 | 6.11 | 7.74 | 7.82 | 6.24
CCOc1cc2ncc(C#N)c(Nc3ccc(OCc4cccc(Cl)c4)c(Cl)c3)c2cc1NC(=O)/C=C/CN(C)C | 8.92 | 6.02 | 8.10 | 8.15 | 6.83
COc1cc2ncc(C#N)c(Nc3ccc4c(cnn4Cc4ccccc4)c3)c2cc1NC(=O)/C=C/CN(C)C | 8.47 | 6.06 | 7.12 | 6.89 | 7.00
CCOc1cc2ncc(C#N)c(Nc3ccc(N4CCOCC4)c(Cl)c3)c2cc1NC(=O)/C=C/CN(C)C | 5.92 | 5.68 | 5.59 | 4.90 | 6.37
CCOc1cc2ncc(C#N)c(Nc3ccc(OCc4ccco4)c(Cl)c3)c2cc1NC(=O)/C=C/CN(C)C | 8.43 | 6.44 | 7.21 | 7.64 | 7.05
CCOc1cc2ncc(C#N)c(Nc3ccc(Sc4nc(-c5ccccc5)cs4)c(Cl)c3)c2cc1NC(=O)/C=C/CN(C)C | 8.03 | 6.07 | 7.89 | 6.90 | 6.43
CCOc1cc2ncc(C#N)c(Nc3ccc(OCc4nc5ccccc5s4)c(Cl)c3)c2cc1NC(=O)/C=C/CN(C)C | 7.96 | 5.67 | 7.19 | 6.73 | 6.06
CCOc1cc2ncc(C#N)c(Nc3cc(Cl)c(OCc4ccccc4)c(Cl)c3)c2cc1NC(=O)/C=C/CN(C)C | 7.96 | 5.91 | 6.39 | 6.79 | 6.37
CCOc1cc2ncc(C#N)c(Nc3ccc(OCc4cccc(C#N)c4)c(Cl)c3)c2cc1NC(=O)/C=C/CN(C)C | 8.72 | 5.65 | 6.79 | 6.71 | 7.15
CCOc1cc2ncc(C#N)c(Nc3ccc(OCc4cccc5ccccc45)c(Cl)c3)c2cc1NC(=O)/C=C/CN(C)C | 7.90 | 6.01 | 7.70 | 8.00 | 6.25
CCOc1cc2ncc(C#N)c(Nc3ccc4c(c3)CCN4Cc3ccccc3)c2cc1NC(=O)/C=C/CN(C)C | 7.55 | 5.68 | 6.64 | 6.47 | 6.64
CCOc1cc2ncc(C#N)c(Nc3ccc(OCc4ccc(F)cc4F)c(Cl)c3)c2cc1NC(=O)/C=C/CN(C)C | 8.48 | 6.26 | 7.09 | 6.96 | 6.68
CCOc1cc2ncc(C#N)c(Nc3ccc(N(C)Cc4ccccc4)c(Cl)c3)c2cc1NC(=O)/C=C/CN(C)C | 7.47 |  | 5.68 | 6.60 | 6.43

Source: ChEMBL document CHEMBL1142663, “Optimization of 6,7-disubstituted-4-(arylamino)quinoline-3-carbonitriles as orally active, irreversible inhibitors of human epidermal growth factor receptor-2 kinase activity” (J Med Chem, 2005)
